Results as given in patent US12582628B2, “Methods for treating breast cancer” (Olatec Therapeutics, Inc., priority 2019, dated 2026).
Where two headings read alike, the source gives them in different places.

How the values were obtained:
[1] = mice, 7.5 g/kg dapansutrile in food (about 1,000 mg/kg/day); nearly the same as human level; cited from earlier work
TSLPR [2] = test: TSLPR mRNA expression in IL-1α-stimulated MDA-468 cells; type: cell-based, human; settings: IL-1α 20 ng/mL, dapansutrile 10 μM, 24 hours, vs control (FIG. 2G)
Description: (§1) Cell Lines. The mammary carcinoma cell lines 4T1, E0771, and MDA-468 were obtained from ATCC (Manassas, VA). Cells were cultured in DMEM supplemented with 10% FBS, 100 units/mL penicillin, 0.1 mg/ml streptomycin. Cells were maintained in a humidified 5% CO2 atmosphere at 37° C.
(§2) In vitro. Tumor cell lines were adhered overnight at a concentration of 200,000 per well. The following day human recombinant IL-1α or IL-1β (R&D Systems, Minneapolis, MN) were added with or without dapansutrile (OLT1177®) and incubated for 24 hours. Cells were then lysed using TRIzol reagent (Thermo Fisher Scientific, Waltham, MA).
(§3) Gene Expression. […] Quantitative PCR (qPCR) was performed on cDNA using Power SYBR Green PCR master mix (Thermo Fisher Scientific) on Biorad CFX96 Real time system. Gene expression was assessed for Tslp, Tslpr, and Pdcd-11L1 mRNAs as indicated using the following primers: […]
(§4) Previous studies on the tumor-myeloid cell interactions in triple-negative breast cancer indicate that tumor-derived IL-1α promotes infiltrating myeloid cells to secrete TSLP (thymic stromal lymphopoietin), which in turn is critical for tumor progression at both primary and distant metastatic sites (15). To further evaluate the effects of blocking NLRP3 in 4T1 tumor progression, inventors quantified gene expression of TSLP and its associated receptor TSLPR in primary 4T1 tumors as measured by relative mRNA expression. […]

TSLP [3] = test: Gene expression (qPCR) in primary 4T1 tumors: TSLP; type: in vivo, mice; settings: dapansutrile diet vs vehicle (FIG. 2D)
Description: (§5) Gene Expression. RNA was then isolated using Trizol (Thermo Fisher Scientific) and synthesized in cDNA using SuperScript III First-Strand (Thermo Fisher Scientific). Quantitative PCR (qPCR) was performed on cDNA using Power SYBR Green PCR master mix (Thermo Fisher Scientific) on Biorad CFX96 Real time system. Gene expression was assessed for Tslp, Tslpr, and Pdcd-11L1 mRNAs as indicated using the following primers: […]
(§6) Tumor Model. Animal protocols were approved by the University of Colorado Health Sciences Center Animal Care and Use Committee. Female BALB/c mice, 6-8 weeks old (The Jackson Laboratory), were fed standard or dapansutrile (OLT1177®) diet (4), which was started on the day of 4T1 injection. 4T1 cells (2×10^5) were injected orthotopically into the mammary fat pad. […]
as §4

PD-L1 [4] = test: Gene expression (qPCR) in 4T1 tumors: PD-L1; type: in vivo, mice; settings: dapansutrile diet vs standard diet (FIG. 3D)
Description: as §5
Tumor Model. Animal protocols were approved by the University of Colorado Health Sciences Center Animal Care and Use Committee. Female BALB/c mice, 6-8 weeks old (The Jackson Laboratory), were fed standard or dapansutrile (OLT1177®) diet (4), which was started on the day of 4T1 injection. 4T1 cells (2×10^5) were injected orthotopically into the mammary fat pad. Mice treated with dapansutrile were fed ad libidum with food pellets containing 7.5 g/kg dapansutrile, which started on the day of the 4T1 injection and continued for 15 days. Mice typically consume about 4 g of food per day, resulting in an approximate daily dose of 0 mg/kg/day for control groups and 1,000 mg/kg/day for the treatment groups. […] Control (“vehicle”) mice were fed with control food pellets without dapansutrile. Mice were sacrificed following 15 days after 4T1 injection. […]

TSLP [5] = test: TSLP mRNA expression in IL-1α-stimulated MDA-468 cells; type: cell-based, human; settings: IL-1α 20 ng/mL, dapansutrile 10 μM, 24 hours, vs control (FIG. 2F)
Description: as §1, §2, §3, §4

IFNγ = test: Splenocyte cytokine secretion (ELISA): IFNγ; type: in vivo; settings: splenocytes of 4T1 tumor-bearing mice, LPS 10 μg/mL, 72 hours, vs vehicle (FIG. 4C)
Description: (§7) Splenocyte Cytokine Secretion. 4T1 cells were injected as described. Spleens from tumor-bearing mice were processed for cell culture through mechanical dissociation. Cells suspended in RPMI supplemented with 10% FBS, 100 units/mL penicillin, 0.1 mg/ml streptomycin and were plated at 5.0e^5 and stimulated with 10 μg/mL LPS. After 72 hours, supernatants were removed and cytokines were measured via ELISA (R&D Systems, Minneapolis, MN).
(§8) In this Example, 4T1 TNBC mice were generated and fed a standard diet or a dapansutrile diet for 15 days.

TSLPR [6] = test: Gene expression (qPCR) in primary 4T1 tumors: TSLPR; type: in vivo, mice; settings: dapansutrile diet vs vehicle (FIG. 2E)
Description: as §5, §6, §4

[7] = humans treated orally at 1000 mg/day; cited from earlier work
[8] = orally administered to healthy subjects; cited from earlier work
PD-L1 [9] = test: PD-L1 mRNA expression in IL-1α-stimulated E0771 cells; type: cell-based, murine; settings: IL-1α 10 ng/mL, dapansutrile vs vehicle (FIG. 3E)
Description: as §1, §2, §5
In vitro analysis of the murine triple-negative breast cancer cell line E0771 was conducted to examine the effects of dapansutrile on PD-L1 expression levels following cell death signaling. IL-1α stimulation was used to simulate cell death signaling in the tumor-microenvironment. […]

4T1 TNBC = 4T1 TNBC orthotopic tumor model (tumor volume, survival); type: in vivo, mice (BALB/c)
Description: Tumor Model. Animal protocols were approved by the University of Colorado Health Sciences Center Animal Care and Use Committee. Female BALB/c mice, 6-8 weeks old (The Jackson Laboratory), were fed standard or dapansutrile (OLT1177®) diet (4), which was started on the day of 4T1 injection. 4T1 cells (2×10^5) were injected orthotopically into the mammary fat pad. Mice treated with dapansutrile were fed ad libidum with food pellets containing 7.5 g/kg dapansutrile, which started on the day of the 4T1 injection and continued for 15 days. Mice typically consume about 4 g of food per day, resulting in an approximate daily dose of 0 mg/kg/day for control groups and 1,000 mg/kg/day for the treatment groups. […] Control (“vehicle”) mice were fed with control food pellets without dapansutrile. Mice were sacrificed following 15 days after 4T1 injection.
(§9) Anti-PD-1 Combination Therapy. 4T1 cells were injected as described. After instillation of 4T1 cells, mice were started on dapansutrile (OLT1177®) diet or continued on standard diet as described and at day seven a neutralizing antibody against PD-1 (200 μg/mouse; BioXCell, West Lebanon, NH) was injected peritoneally. Mice were sacrificed following 15 days from the […] instillation.
as §9, with “Anti-IL-1α” for “Anti-PD-1”, “every three days” for “at day seven”, “anti-IL-1α” for “PD-1”, “XBioTech, Austin, TX)” for “BioXCell, West Lebanon, NH)”
4T1 TNBC mice were generated and fed a standard diet or a dapansutrile diet for 15 days. Tumors were measured on indicated days to generate a growth curve (FIG. 1C). Final tumor volume was taken following resection of the tumors (FIG. 1B).
To further assess the roles of IL-1α and IL-1β in driving 4T1 tumor progression, inventors treated mice with anti-IL-1α (200 μg/mouse), dapansutrile diet, and a combination of both. 4T1 TNBC mice were generated and fed a standard diet or a dapansutrile diet for 15 days. Mice were injected with anti-IL1α every 3 days as indicated. Subsequently, tumor volume was analyzed.
4T1 TNBC mice were generated and fed a standard diet or a dapansutrile diet for 15 days. Mice receiving a combination therapy were injected with anti-PD-1 on day 7 as indicated (FIG. 3A).

NLRP3 inflammasome = NLRP3 inflammasome (Homo sapiens, UniProt Q96P20); settings: cited from earlier work
Chain of NLRP3 inflammasome (Q96P20 whole entry): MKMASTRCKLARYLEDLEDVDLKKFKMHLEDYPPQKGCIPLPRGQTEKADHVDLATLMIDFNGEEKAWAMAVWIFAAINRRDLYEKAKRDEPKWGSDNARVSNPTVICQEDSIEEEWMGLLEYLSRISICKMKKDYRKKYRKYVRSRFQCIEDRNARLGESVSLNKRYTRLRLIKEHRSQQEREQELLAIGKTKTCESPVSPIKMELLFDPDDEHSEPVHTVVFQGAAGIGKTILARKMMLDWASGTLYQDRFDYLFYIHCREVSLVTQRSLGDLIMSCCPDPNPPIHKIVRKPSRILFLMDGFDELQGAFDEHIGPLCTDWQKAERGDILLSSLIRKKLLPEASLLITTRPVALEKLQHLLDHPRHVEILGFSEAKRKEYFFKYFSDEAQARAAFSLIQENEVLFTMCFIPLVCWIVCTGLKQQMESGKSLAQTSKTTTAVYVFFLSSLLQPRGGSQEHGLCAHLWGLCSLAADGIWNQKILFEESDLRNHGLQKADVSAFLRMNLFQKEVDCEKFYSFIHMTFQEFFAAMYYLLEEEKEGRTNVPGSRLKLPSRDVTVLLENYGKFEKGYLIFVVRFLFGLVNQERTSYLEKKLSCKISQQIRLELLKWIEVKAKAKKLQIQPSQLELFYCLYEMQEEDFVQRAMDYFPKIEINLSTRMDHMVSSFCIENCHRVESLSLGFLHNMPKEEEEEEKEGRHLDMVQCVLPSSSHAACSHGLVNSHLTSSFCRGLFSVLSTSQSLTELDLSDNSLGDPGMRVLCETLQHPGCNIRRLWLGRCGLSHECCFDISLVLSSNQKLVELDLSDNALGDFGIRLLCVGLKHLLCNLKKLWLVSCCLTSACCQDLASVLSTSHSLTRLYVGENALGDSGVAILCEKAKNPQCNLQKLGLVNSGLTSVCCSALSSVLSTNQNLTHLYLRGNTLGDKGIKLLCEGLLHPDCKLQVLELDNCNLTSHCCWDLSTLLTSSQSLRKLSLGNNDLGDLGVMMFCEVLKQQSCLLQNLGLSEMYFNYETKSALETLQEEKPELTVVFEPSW

IL-22 = test: Splenocyte cytokine secretion (ELISA): IL-22; type: in vivo; settings: splenocytes of 4T1 tumor-bearing mice, LPS 10 μg/mL, 72 hours, vs vehicle (FIG. 4B)
Description: as §7, §8

For `CS(=O)(=O)CCC#N` [dapansutrile, 3-methanesulfonyl-propionitrile], the blood level [1] is listed as roughly 40000 ng/mL, the “TSLPR expression (relative mRNA)” value (TSLPR [2]) is listed as “significantly lower” and the “TSLP expression (relative mRNA)” value (TSLP [3]) is listed as “significantly lower”. The “PD-L1 gene expression (relative mRNA)” value (PD-L1 [4]) was “significantly less”, the “TSLP expression (relative mRNA)” value (TSLP [5]) was “significantly lower” and the IFNγ levels (IFNγ) was “increased”. For the same molecule, the “TSLPR expression (relative mRNA)” value (TSLPR [6]) was “significantly lower”, the blood level [7] was 40000 ng/mL and the safety [8] was “safe”. For the same molecule, the “PD-L1 expression (relative mRNA)” value (PD-L1 [9]) was “markedly lower”, the “mice surviving beyond 30 days” value (4T1 TNBC; Example 1, 4T1 TNBC mice on dapansutrile diet) was “half” and the tumor volume (4T1 TNBC; Example 1, 4T1 TNBC mice, dapansutrile diet 15 days vs standard diet, after resection (FIG. 1B)) was “significantly decreased tumor volume”. For the same molecule, the survival rates (4T1 TNBC; Example 1, 4T1 TNBC mice, dapansutrile diet vs standard diet (FIG. 1D, n=10)) was “significantly higher survival rates”, the tumor volumes (4T1 TNBC; Example 2, 4T1 TNBC mice, 15 days, dapansutrile diet and/or anti-IL-1α 200 μg/mouse every 3 days, vs vehicle (FIGS. 2B, 2C)) was “significantly reduced tumor volumes” and the tumor volume (4T1 TNBC; Example 3, 4T1 TNBC mice, day 15 after resection, dapansutrile diet and/or anti-PD-1 200 μg/mouse on day 7, vs vehicle (FIG. 3B)) was “significant tumor reduction”. The NLRP3 inflammasome inhibition (NLRP3 inflammasome) was “selectively inhibit” and the IL-22 levels (IL-22) was “significantly reduced IL-22 levels”.
